System: mGluR5 and Rock10 (mGluR5-T4 lysozyme fusion protein of FIG. 3)
Assay: 3H-MPEP ligand binding in membranes of transfected HEK293 cells
Parameters: species or system human
Conditions: HEK293 cell membranes; ^3H-MPEP radioligand; wild-type mGluR5 vs fusion protein Rock10 (FIG. 6)
Procedure: HEK293 cells were cultured on plastic dishes at 37° C. with 5% CO2 in Dulbecco's modified Eagle's medium (Cellgro) with 5% fetal bovine serum. For an individual expression experiment, cells at confluency were split, and approximately 100,000 cells were used to seed glass cover slips in the same medium. After 2 d, cells are transfected with the addition of 1 μg of a given pCDNA3-receptor plasmid and 3 μl of Fugene 6 reagent (Roche). 48 h after transfection, cells were harvested and membranes prepared for ligand binding analysis. ^3H-MPEP (a negative allosteric modulator that binds to the transmembrane domains of mGluR5) was used to detect functional mGluR5 in HEK293 cell membranes (see FIG. 6).

SMILES: Cc1cccc(C#Cc2ccccc2)n1 [MPEP]
- affinity of MPEP for mGluR5 compared with Rock10: same affinity for mGluR5 as Rock10

— patent publication US8889377B2, “GPCR comprising an IC2 insertion” (ConfometRx, Inc., priority 2010, dated 2014)
